For the assay, the target named is T1, MeCP2-TBL1 interaction (MeCP2-SmBiT / TBL1-LgBiT) (Mus musculus, UniProt Q9QXE7).
T1 construct: expressed in transfected cells; crude lysate used as a cell-free assay
T1 sequence (Q9QXE7 166-527): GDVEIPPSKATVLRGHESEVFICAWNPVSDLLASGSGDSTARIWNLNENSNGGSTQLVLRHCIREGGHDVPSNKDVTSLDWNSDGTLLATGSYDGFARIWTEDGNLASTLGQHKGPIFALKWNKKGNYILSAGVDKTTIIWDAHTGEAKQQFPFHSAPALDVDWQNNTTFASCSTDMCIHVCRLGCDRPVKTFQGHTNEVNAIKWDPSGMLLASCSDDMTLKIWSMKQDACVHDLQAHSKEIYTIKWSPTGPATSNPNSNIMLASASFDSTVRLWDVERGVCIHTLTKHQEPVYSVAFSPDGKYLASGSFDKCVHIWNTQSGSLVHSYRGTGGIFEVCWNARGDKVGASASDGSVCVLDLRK
The experiment in a line: MeCP2-TBL1 NanoLuc luciferase complementation assay (cell-free, extracts of transfected HEK293 cells).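 Note: each compound tested at 20 µM final concentration.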 The assay is classed as binding, human. The method, boiled down: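 Cell-free split NanoLuc: lysate of HEK293 cells co-expressing the MeCP2 C-terminal half-SmBiT and TBL1 WD domain-LgBiT, mixed 1:1 with furimazine. After 30 min at room temperature, luminescence was plate-median normalized.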

[1] abbreviates: primary screen of the Asinex library, sheet "Sargen output Asinex library", one well per compound.
Where [2] appears, read: primary screen of the Asinex library, sheet "Sargen output Asinex library", one well per compound, Batch Ref. 1.
The mark [3] stands for this setting: primary screen of Asinex library, single well per compound.

Turning to `CCn1c(=O)oc2cc(NC(=O)CN3C[C@]4(NC(C)=O)CN(C)CC[C@@H]4[C@H]3c3ccccc3)ccc21` [BDH_33617644], the Inhibition percent under setting [1] is -0.000394%.
For `COc1cccc([C@@H]2C[C@]3(C)NC(=O)CCCC[C@@H]3N2CC(=O)Nc2ccc3c(c2)nc(C)n3C)c1` [BDH_33617989], under setting [1], the Inhibition percent is listed as 1.66%.
On to `Cc1nc2cc(NC(=O)CN3C[C@@H](c4cc(F)cc(F)c4)[C@@]4(CCCCC(=O)N4)C3)ccc2n1C` [BDH_33617993], for which the Inhibition percent under setting [2] came to 1.15%.
On to `CC(=O)N[C@@]12CN(C)CC[C@@H]1[C@@H](c1ccccc1)N(CC(=O)Nc1ccc3c(c1)nc(C)n3C)C2` [BDH_33618117], for which, under setting [2], the Inhibition percent is 4.04%.
The same measure, in the same setting: to `COc1ccc([C@@H]2C[C@]3(C)NC(=O)CCC[C@@H]3N2CC(=O)Nc2ccc3c(c2)nc(C)n3C)cc1` [BDH_33618124] belongs 4.89%; to `COc1ccc(C)c(NC(=O)CN2CC[C@@]3(NC(C)=O)CN(C(C)=O)[C@H](c4ccccc4)[C@H]3C2)c1` [BDH_33618460], 1.43%.
Turning to `COc1ccc(C)c(NC(=O)CN2CC[C@@H]3[C@@H](c4ccccc4)N(C(C)=O)C[C@]3(NC(C)=O)C2)c1` [BDH_33618463], the Inhibition percent under setting [1] is -3.37%.
Consider `O=C(CN1C[C@@H](c2cc(F)cc(F)c2)[C@@]2(CCCCC(=O)N2)C1)Nc1ccnn1C1CCCC1` [BDH_33619464], for which the Inhibition percent under setting [1] amounted to 4.29%.
For `COc1cccc([C@@H]2C[C@]3(C)NC(=O)CCCC[C@@H]3N2CC(=O)Nc2cc(C)ccc2F)c1` [BDH_33619764], under setting [3], the Inhibition percent is on record as -0.65.
As for `CC(=O)N[C@@]12CCN(CC(=O)Nc3cc(C)ccc3F)C[C@@H]1[C@@H](c1ccccc1)N(C(C)=O)C2` [BDH_33619766], the Inhibition percent under setting [3] is -3.87.
Regarding `CC(=O)N[C@@]12CN(CC(=O)Nc3cc(C)ccc3F)CC[C@@H]1[C@@H](c1ccccc1)N(C(C)=O)C2` [BDH_33619769], the Inhibition percent under setting [1] is listed as -1.76%.
`CC(=O)N[C@H]1C[C@@H](C(=O)N(C)C)N(CC(=O)Nc2cccc3c2CCCC3)[C@H]1c1ccccc1` [BDH_33619991]: the Inhibition percent under setting [2] was -0.19%.
On to `COc1cccc([C@@H]2C[C@]3(C)NC(=O)CCCC[C@@H]3N2CC(=O)Nc2ccn(C)n2)c1` [BDH_33620384], for which the Inhibition percent under setting [3] is on record as -2.63.
Same read-out and setting: to `O=C(CN1CCNCC1c1ccc(C(F)(F)F)cc1)NC(c1ccccc1)c1ccccc1` (stereo not drawn) [BDH_33620941] belongs -0.43; to `COc1cccc([C@@H]2C[C@]3(C)NC(=O)CCCC[C@@H]3N2CC(=O)Nc2cc(F)ccc2C)c1` [BDH_33620981], -1.41.
Regarding `CC(=O)N[C@@]12CN(C(C)=O)CC[C@@H]1[C@@H](c1ccccc1)N(CC(=O)Nc1cc(F)ccc1C)C2` [BDH_33621128], the Inhibition percent under setting [1] is 1.60%.
In the case of `COc1cccc([C@@H]2C[C@]3(C)NC(=O)CCCC[C@@H]3N2CC(=O)Nc2cccc(C)c2C)c1` [BDH_33621286], the Inhibition percent under setting [2] worked out at 2.19%.
With `CC(=O)N[C@@]12CN(C)CC[C@@H]1[C@@H](c1ccccc1)N(CC(=O)Nc1cccc(C)c1C)C2` [BDH_33621433], under setting [1], the Inhibition percent was -4.50%.
As to `CC(=O)N[C@@]12CN(C(C)=O)CC[C@@H]1[C@@H](c1ccccc1)N(CC(=O)Nc1cccc(C)c1C)C2` [BDH_33621434], the Inhibition percent under setting [1] came to 5.23%.
In the case of `COc1ccc(NC(C)=O)c(NC(=O)CN2C[C@H]3CCC[C@H](Cc4cnccn4)[C@H]3C2)c1` [BDH_33621771], under setting [3], the Inhibition percent is 0.12.
As for `CC(=O)N[C@@]12CN(C(C)=O)CC[C@@H]1[C@@H](c1ccccc1)N(CC(=O)Nc1cccc(F)c1C)C2` [BDH_33622250], under setting [2], the Inhibition percent is listed as -0.19%.
On to `COc1cccc([C@@H]2C[C@]3(C)NC(=O)CCCC[C@@H]3N2CC(=O)NCc2nc3ccccc3n2C)c1` [BDH_33622879], for which the Inhibition percent under setting [2] was 0.95%.
As to `Cn1c(CNC(=O)CN2[C@H](Cc3ccccc3)C[C@]3(C)NC(=O)CCC[C@H]23)nc2ccccc21` [BDH_33623014], the Inhibition percent under setting [1] is -0.21%.
Regarding `COc1ccc([C@@H]2C[C@]3(C)NC(=O)CCC[C@@H]3N2CC(=O)NCc2nc3ccccc3n2C)cc1` [BDH_33623015], under setting [1], the Inhibition percent was 0.43%.
For the molecule `CCc1ccccc1NC(=O)CN1CC[C@@]2(NC(C)=O)CN(C(C)=O)[C@H](c3ccccc3)[C@H]2C1` [BDH_33623049], the Inhibition percent under setting [1] is -1.00%.
For the molecule `CC(=O)N[C@H]1C[C@@H](C(=O)N(C)C)N(CC(=O)NCc2ccc3[nH]c(C)c(C)c3c2)[C@H]1c1ccccc1` [BDH_33623462], the Inhibition percent under setting [1] is -0.84%.
Consider `COc1ccc([C@@H]2C[C@]3(C)NC(=O)CCC[C@@H]3N2CC(=O)NCc2ccc3[nH]c(C)c(C)c3c2)cc1` [BDH_33623525], for which the Inhibition percent under setting [2] is -0.10%.
On to `CCn1cc(NC(=O)CN2[C@H]3CCCCC(=O)N[C@@]3(C)C[C@H]2c2cccc(C(F)(F)F)c2)c(C)n1` [BDH_33623667], for which the Inhibition percent under setting [3] is -2.55.
On to `CCn1cc(NC(=O)CN2[C@H](Cc3ccccc3)C[C@]3(C)NC(=O)CCC[C@H]23)c(C)n1` [BDH_33623813], for which the Inhibition percent under setting [1] was -1.65%.
In the case of `CC(=O)Nc1ccc(NC(=O)CN2[C@H](Cc3ccccc3)C[C@]3(C)NC(=O)CCC[C@H]23)c(Cl)c1` [BDH_33623952], under setting [1], the Inhibition percent came to 1.80%.
The same measure, in the same setting: to `COc1cccc([C@@H]2C[C@]3(C)NC(=O)CCCC[C@@H]3N2CC(=O)Nc2ccc(OC(F)F)cc2)c1` [BDH_33624322] belongs 7.98%.
Consider `CC(=O)N[C@@]12CN(C)CC[C@@H]1[C@@H](c1ccccc1)N(CC(=O)Nc1ccc(OC(F)F)cc1)C2` [BDH_33624452], for which the Inhibition percent under setting [3] is 0.21.
In the case of `COc1ccc([C@@H]2C[C@]3(C)NC(=O)CCC[C@@H]3N2CC(=O)Nc2ccc(OC(F)F)cc2)cc1` [BDH_33624459], the Inhibition percent under setting [2] is on record as -1.08%.
As for `Cc1cc(NC(=O)CN2[C@H]3CCCCCN[C@@]3(C)C[C@H]2c2ccccc2)nn1C` [BDH_33624483], the Inhibition percent under setting [3] is -0.55.
On to `COc1cccc([C@@H]2C[C@]3(C)NC(=O)CCCC[C@@H]3N2CC(=O)Nc2cc(C)n(C)n2)c1` [BDH_33624491], for which the Inhibition percent under setting [2] is listed as -2.56%.
As for `CCc1ccc(NC(=O)CN2[C@H]3CCCCC(=O)N[C@@]3(C)C[C@H]2c2cccc(OC)c2)cc1` [BDH_33625442], the Inhibition percent under setting [1] was 10.53%.
With `CC(=O)N[C@@]12CCN(CC(=O)Nc3ccc(C)c(F)c3)C[C@@H]1[C@@H](c1ccccc1)N(C(C)=O)C2` [BDH_33625631], the Inhibition percent under setting [1] stood at 2.58%.
As for `Cc1ccc(NC(=O)CN2[C@H](Cc3ccccc3)C[C@]3(C)NC(=O)CCC[C@H]23)cc1F` [BDH_33625782], under setting [2], the Inhibition percent is recorded as 10.91%.
In the case of `COc1ccc([C@@H]2C[C@]3(C)NC(=O)CCC[C@@H]3N2CC(=O)Nc2ccc(C)c(F)c2)cc1` [BDH_33625783], under setting [2], the Inhibition percent came to 2.77%.
`COc1ccc(C)cc1NC(=O)CN1CC[C@@]2(NC(C)=O)CN(C(C)=O)[C@H](c3ccccc3)[C@H]2C1` [BDH_33625816]: the Inhibition percent under setting [2] was 0.56%.
Take `CC(=O)N[C@@]12CCN(CC(=O)Nc3cccc(F)c3)C[C@@H]1[C@@H](c1ccccc1)N(C(C)=O)C2` [BDH_33625995]: the Inhibition percent under setting [2] is reported as -1.85%.
Regarding `COc1ccc([C@@H]2C[C@]3(C)NC(=O)CCC[C@@H]3N2CC(=O)Nc2cccc(F)c2)cc1` [BDH_33626152], the Inhibition percent under setting [2] is reported as -3.72%.
For the molecule `CC(=O)N[C@H]1C[C@@H](C(=O)N(C)C)N(CC(=O)NCc2ccccc2Cl)[C@H]1c1ccccc1` [BDH_33626360], under setting [2], the Inhibition percent is 0.20%.
As to `C[C@]12C[C@@H](Cc3ccccc3)N(CC(=O)NCc3ccccc3Cl)[C@H]1CCCC(=O)N2` [BDH_33626431], under setting [3], the Inhibition percent turned out to be 6.92.
On to `COc1ccc(NC(=O)CN2[C@H]3CCCCC(=O)N[C@@]3(C)C[C@H]2c2cccc(OC)c2)cc1` [BDH_33626569], for which the Inhibition percent under setting [2] is -0.22%.
Take `COc1ccc(NC(=O)CN2CC[C@@]3(NC(C)=O)CN(C(C)=O)[C@H](c4ccccc4)[C@H]3C2)cc1` [BDH_33626570]: under setting [2], the Inhibition percent is recorded as -3.55%.
With `Nc1ncc(-c2cccc(C(F)(F)F)c2)c(C2CCCCN2C(=O)CCNC(=O)c2cccnc2)n1` (stereo not drawn) [BDH_33627369], under setting [2], the Inhibition percent is listed as 1.39%.
With `C[C@]12C[C@@H](Cc3ccccc3)N(C(=O)CC3CCN(c4ncccn4)CC3)[C@H]1CCCC(=O)N2` [BDH_33627845], the Inhibition percent under setting [3] is -0.41.
As to `C[C@]12C[C@@H](Cc3ccccc3)N(C(=O)CCN3C(=O)CCCC3=O)[C@H]1CCCC(=O)N2` [BDH_33628122], under setting [2], the Inhibition percent came to 1.89%.
Regarding `Cc1cc(O)cc(=O)n1CC(=O)N1CCCCC1C1CCN(C(=O)Cc2ccccc2F)CC1` (stereo not drawn) [BDH_33628360], under setting [3], the Inhibition percent is reported as -0.67.
`Nc1ncc(-c2cccc(C(F)(F)F)c2)c(C2CCCCN2C(=O)CCN2C(=O)CCNC2=O)n1` (stereo not drawn) [BDH_33628597]: under setting [2], the Inhibition percent stood at 2.35%.
As for `O=C(NCCC1CCCCN1C(=O)CCN1C(=O)CCNC1=O)c1ccccc1` (stereo not drawn) [BDH_33628607], the Inhibition percent under setting [3] came out at 0.45.
Consider `Cn1c(=O)c2c(ncn2CCC(=O)N2[C@H](Cc3ccccc3)C[C@]3(C)NC(=O)CCC[C@H]23)n(C)c1=O` [BDH_33628646], for which, under setting [2], the Inhibition percent is given as 0.10%.
`Cc1ccc(NC(=O)c2cccc(C3CCCN3C(=O)CCCN3Cc4ccccc4C3)n2)nc1` (stereo not drawn) [BDH_33628747]: the Inhibition percent under setting [1] was -0.70%.

These data come from paper PMC9995496, “A screen for MeCP2-TBL1 interaction inhibitors using a luminescence-based assay” (Scientific Reports, 2023).
